What was measured:
Format in all cases: in vivo
[1] = test system: Monocotyledonous and dicotyledonous weed seeds and main crop seeds; assay: Post-emergence test experiment, other weeds and crops (Table 4, 1000 g a.i./ha); settings: 3 weeks in greenhouse, fresh weight inhibition
Procedure, shortened: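 Growth inhibition is scored on fresh weight. Spray solutions were made in acetone with tween-80, diluted in water, plus 1.5 L/ha methyl oleate emulsible concentrate. Plants from greenhouse-grown weed and crop seeds were treated post-emergence at 2-3 leaves, 2 weeks after sowing.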

[2] = test system: Echinochloa crusgalli; assay: Post-emergence test experiment, Echinochloa crusgalli; settings: for Echinochloa crusgalli, activity level (growth inhibition rate) / inhibition at 200 g/ha: 200 g a.i./ha, weed resistant to ALS inhibitor and ACCe herbicides; for Activity level (growth inhibition rate), Echinochloa crusgalli: 1000 g a.i./ha, 3 weeks in greenhouse, fresh weight inhibition
Procedure, shortened: (§1)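 Seeds sown under 0.5-2 cm soil; sprayed post-emergence at 2-3 leaves with acetone/tween-80 solution plus 1.5 L/ha methyl oleate EC; greenhouse 3 wk; % fresh weight inhibition.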

[3] = test system: Digitaria sanguinalis; assay: Post-emergence test experiment, Digitaria sanguinalis; settings: for Digitaria sanguinalis, activity level (growth inhibition rate) / inhibition at 200 g/ha: 200 g a.i./ha, weed resistant to cyhalofop-butyl; for Activity level (growth inhibition rate), Digitaria sanguinalis: 1000 g a.i./ha, 3 weeks in greenhouse, fresh weight inhibition
Procedure, shortened: as §1

[4] = test system: Semen Euphorbiae Lathyridis; assay: Post-emergence test experiment, Semen Euphorbiae Lathyridis; settings: for Semen Euphorbiae Lathyridis, activity level (growth inhibition rate) / inhibition at 200 g/ha: 200 g a.i./ha, weed resistant to cyhalofop-butyl
Protocol: (§2) The above described growth inhibition rate is fresh weight inhibition rate.
(§3) Post-emergence test experiment: Monocotyledonous and dicotyledonous weed seeds and main crop seeds (i. e. wheat, corn, rice, soybean, cotton, oilseed, millet and sorghum.) were put into a plastic pot loaded with soil. Then covered with 0.5-2 cm soil, the seeds were allowed to grow in good greenhouse environment. The test plants were treated at 2-3 leaf stage 2 weeks after sowing. The test compounds of the invention were dissolved with acetone respectively, then added with tween-80, and using 1.5 liters per hectare of an emulsible concentrate of methyl oleate as a synergist, and diluted by certain amount of water to certain concentration. The solution was sprayed to the plants with a sprayer. Then the plants were cultured for 3 weeks in the greenhouse, and the experiment result of weed controlling effect was listed in tables 4-5.

[5] = test system: rice; assay: Post-emergence test experiment, rice (crop selectivity); settings: 3 weeks
Protocol: as §2, §3

[6] = Echinochloa crus-galli, 504 h, 3 weeks, read-out: Echinochloa crusgalli, activity level (growth inhibition rate)
[7] = Digitaria sanguinalis, 504 h, 3 weeks, read-out: Digitaria sanguinalis, activity level (growth inhibition rate)
[8] = 504 h, 3 weeks, read-out: Semen Euphorbiae Lathyridis, activity level (growth inhibition rate)

COC(=O)[C@@H](C)Oc1ncc(Cl)c(N)c1Cl [Compound 2-30]
Activity level (growth inhibition rate), Abutilon theophrasti Medic. [1]: 5 (Level 5: the growth inhibition rate is greater than 85%) | Activity level (growth inhibition rate), Galium aparine [1]: 5 (Level 5: the growth inhibition rate is greater than 85%) | Activity level (growth inhibition rate), Monochoria Vaginalis [1]: 5 (Level 5: the growth inhibition rate is greater than 85%) | Echinochloa crusgalli, activity level (growth inhibition rate) ([2]; 3 weeks): 4 (Level 4: the growth inhibition rate is equal to or greater than 60% and less than 85%) | Activity level (growth inhibition rate), Echinochloa crusgalli [2]: 5 (Level 5: the growth inhibition rate is greater than 85%) | Digitaria sanguinalis, activity level (growth inhibition rate) ([3]; 3 weeks): 5 (Level 5: the growth inhibition rate is greater than 85%) | Activity level (growth inhibition rate), Digitaria sanguinalis [3]: 5 (Level 5: the growth inhibition rate is greater than 85%) | Semen Euphorbiae Lathyridis, activity level (growth inhibition rate) ([4]; 3 weeks): 4 (Level 4: the growth inhibition rate is equal to or greater than 60% and less than 85%)

CC(C)=NOC(=O)C(C)Oc1nc(F)c(Cl)c(N)c1Cl (stereo not drawn) [Compound 2-292]
Activity level (growth inhibition rate), Abutilon theophrasti Medic. [1]: 5 (Level 5: the growth inhibition rate is greater than 85%) | Activity level (growth inhibition rate), Galium aparine [1]: 5 (Level 5: the growth inhibition rate is greater than 85%) | Activity level (growth inhibition rate), Monochoria Vaginalis [1]: 5 (Level 5: the growth inhibition rate is greater than 85%) | Echinochloa crusgalli, activity level (growth inhibition rate) ([2]; 3 weeks): 5 (Level 5: the growth inhibition rate is greater than 85%) | Activity level (growth inhibition rate), Echinochloa crusgalli [2]: 5 (Level 5: the growth inhibition rate is greater than 85%) | Digitaria sanguinalis, activity level (growth inhibition rate) ([3]; 3 weeks): 5 (Level 5: the growth inhibition rate is greater than 85%) | Activity level (growth inhibition rate), Digitaria sanguinalis [3]: 5 (Level 5: the growth inhibition rate is greater than 85%) | Semen Euphorbiae Lathyridis, activity level (growth inhibition rate) ([4]; 3 weeks): 5 (Level 5: the growth inhibition rate is greater than 85%)

CCNc1c(Cl)c(F)nc(O[C@H](C)C(=O)SC)c1Cl [Compound 2-376]
Activity level (growth inhibition rate), Abutilon theophrasti Medic. [1]: 5 (Level 5: the growth inhibition rate is greater than 85%) | Activity level (growth inhibition rate), Galium aparine [1]: 5 (Level 5: the growth inhibition rate is greater than 85%) | Activity level (growth inhibition rate), Monochoria Vaginalis [1]: 5 (Level 5: the growth inhibition rate is greater than 85%) | Activity level (growth inhibition rate), Echinochloa crusgalli [2]: 5 (Level 5: the growth inhibition rate is greater than 85%) | Activity level (growth inhibition rate), Digitaria sanguinalis [3]: 5 (Level 5: the growth inhibition rate is greater than 85%)

COC(=O)[C@@H](C)Oc1nc(F)c(Cl)c(NC(C)=O)c1Cl [Compound 2-377]
Activity level (growth inhibition rate), Abutilon theophrasti Medic. [1]: 5 (Level 5: the growth inhibition rate is greater than 85%) | Activity level (growth inhibition rate), Galium aparine [1]: 5 (Level 5: the growth inhibition rate is greater than 85%) | Activity level (growth inhibition rate), Monochoria Vaginalis [1]: 5 (Level 5: the growth inhibition rate is greater than 85%) | Activity level (growth inhibition rate), Echinochloa crusgalli [2]: 5 (Level 5: the growth inhibition rate is greater than 85%) | Activity level (growth inhibition rate), Digitaria sanguinalis [3]: 5 (Level 5: the growth inhibition rate is greater than 85%)

COC(=O)[C@@H](C)Oc1nc(F)c(Cl)c(NCc2ccco2)c1Cl [Compound 2-378]
Activity level (growth inhibition rate), Abutilon theophrasti Medic. [1]: 5 (Level 5: the growth inhibition rate is greater than 85%) | Activity level (growth inhibition rate), Galium aparine [1]: 5 (Level 5: the growth inhibition rate is greater than 85%) | Activity level (growth inhibition rate), Monochoria Vaginalis [1]: 5 (Level 5: the growth inhibition rate is greater than 85%) | Activity level (growth inhibition rate), Echinochloa crusgalli [2]: 5 (Level 5: the growth inhibition rate is greater than 85%) | Activity level (growth inhibition rate), Digitaria sanguinalis [3]: 5 (Level 5: the growth inhibition rate is greater than 85%)

COC(=O)[C@@H](C)Oc1nc(F)c(Cl)c(NC(=O)c2ccccc2)c1Cl [Compound 2-379]
Activity level (growth inhibition rate), Abutilon theophrasti Medic. [1]: 5 (Level 5: the growth inhibition rate is greater than 85%) | Activity level (growth inhibition rate), Galium aparine [1]: 5 (Level 5: the growth inhibition rate is greater than 85%) | Activity level (growth inhibition rate), Monochoria Vaginalis [1]: 5 (Level 5: the growth inhibition rate is greater than 85%) | Activity level (growth inhibition rate), Echinochloa crusgalli [2]: 5 (Level 5: the growth inhibition rate is greater than 85%) | Activity level (growth inhibition rate), Digitaria sanguinalis [3]: 5 (Level 5: the growth inhibition rate is greater than 85%)

CC(C)=NOCCOC(=O)[C@@H](C)Oc1nc(C)c(Cl)c(N)c1Cl [Compound 2-386]
Activity level (growth inhibition rate), Abutilon theophrasti Medic. [1]: 5 (Level 5: the growth inhibition rate is greater than 85%) | Activity level (growth inhibition rate), Galium aparine [1]: 5 (Level 5: the growth inhibition rate is greater than 85%) | Activity level (growth inhibition rate), Monochoria Vaginalis [1]: 5 (Level 5: the growth inhibition rate is greater than 85%) | Activity level (growth inhibition rate), Echinochloa crusgalli [2]: 5 (Level 5: the growth inhibition rate is greater than 85%) | Activity level (growth inhibition rate), Digitaria sanguinalis [3]: 5 (Level 5: the growth inhibition rate is greater than 85%)

COC(=O)[C@@H](C)Oc1nc(F)c(Cl)c(NCc2ccc(C(F)(F)F)o2)c1Cl [Compound 2-387]
Activity level (growth inhibition rate), Abutilon theophrasti Medic. [1]: 5 (Level 5: the growth inhibition rate is greater than 85%) | Activity level (growth inhibition rate), Galium aparine [1]: 5 (Level 5: the growth inhibition rate is greater than 85%) | Activity level (growth inhibition rate), Monochoria Vaginalis [1]: 5 (Level 5: the growth inhibition rate is greater than 85%) | Activity level (growth inhibition rate), Echinochloa crusgalli [2]: 5 (Level 5: the growth inhibition rate is greater than 85%) | Activity level (growth inhibition rate), Digitaria sanguinalis [3]: 5 (Level 5: the growth inhibition rate is greater than 85%)

COc1cc(OC)nc(Oc2cccc(Oc3nc(OC)cc(OC)n3)c2C(=O)O)n1 [bispyribac-sodium, reference compound]
inhibition at 100 g/ha ([2]; Echinochloa crus-galli, 504 h, 100 g a.i./ha, 3 weeks, resistant weed, read-out: Echinochloa crusgalli, activity level (growth inhibition rate)): 5 to 20% | inhibition at 100 g/ha ([3]; Digitaria sanguinalis, 504 h, 100 g a.i./ha, 3 weeks, resistant weed, read-out: Digitaria sanguinalis, activity level (growth inhibition rate)): 5 to 20% | inhibition at 100 g/ha ([4]; 504 h, 100 g a.i./ha, 3 weeks, resistant weed, read-out: Semen Euphorbiae Lathyridis, activity level (growth inhibition rate)): < 5%

CCCCOC(=O)[C@@H](C)Oc1ccc(Oc2ccc(C#N)cc2F)cc1 [cyhalofop-butyl, reference compound]
inhibition at 300 g/ha ([2]; Echinochloa crus-galli, 504 h, read-out: Echinochloa crusgalli, activity level (growth inhibition rate)): 5 to 20% | rice, activity level (growth inhibition rate) ([5]; 300 g a.i./ha): 0 (Level 0: the growth inhibition rate is less than 5%) | inhibition at 300 g/ha ([3]; Digitaria sanguinalis, 504 h, read-out: Digitaria sanguinalis, activity level (growth inhibition rate)): 5 to 20% | inhibition at 300 g/ha ([4]; 504 h, read-out: Semen Euphorbiae Lathyridis, activity level (growth inhibition rate)): 5 to 20%

CC(Oc1nc(F)c(Cl)c(N)c1Cl)C(=O)OCC1CCCO1 (stereo not drawn) [drawing 482, reference compound]
inhibition at 200 g/ha [2, 6]: 40 to 60% | rice, activity level (growth inhibition rate) ([5]; 200 g a.i./ha): 0 (Level 0: the growth inhibition rate is less than 5%)

CC(Oc1nc(Cl)c(Cl)c(N)c1Cl)C(=O)O (stereo not drawn) [reference compound]
inhibition at 200 g/ha [2, 6]: 20 to 40% | inhibition at 200 g/ha [3, 7]: 40 to 60% | inhibition at 200 g/ha [4, 8]: 40 to 60%

C[C@H](Oc1nc(Cl)c(Cl)c(N)c1Cl)C(=O)O [reference compound]
inhibition at 200 g/ha [2, 6]: 5 to 20% | inhibition at 200 g/ha [3, 7]: 5 to 20% | inhibition at 200 g/ha [4, 8]: 5 to 20%

CC(Oc1nc(F)c(Cl)c(N)c1Cl)C(=O)O (stereo not drawn) [reference compound]
inhibition at 200 g/ha [2, 6]: 20 to 40% | rice, activity level (growth inhibition rate) ([5]; 200 g a.i./ha): 2 (Level 2: the growth inhibition rate is equal to or greater than 20% and less than 40%) | inhibition at 200 g/ha [3, 7]: 40 to 60% | inhibition at 200 g/ha [4, 8]: 40 to 60%

C[C@H](Oc1nc(F)c(Cl)c(N)c1Cl)C(=O)O [reference compound]
inhibition at 200 g/ha [2, 6]: 5 to 20% | inhibition at 200 g/ha [3, 7]: 5 to 20% | inhibition at 200 g/ha [4, 8]: 5 to 20%

COC(=O)C(C)Oc1ncc(Cl)c(N)c1Cl (stereo not drawn) [reference compound]
inhibition at 200 g/ha [2, 6]: 20 to 40% | inhibition at 200 g/ha [3, 7]: 40 to 60% | inhibition at 200 g/ha [4, 8]: 20 to 40%

COC(=O)[C@H](C)Oc1ncc(Cl)c(N)c1Cl [reference compound]
inhibition at 200 g/ha [2, 6]: < 5% | inhibition at 200 g/ha [3, 7]: < 5% | inhibition at 200 g/ha [4, 8]: < 5%

CCOC(=O)C(C)Oc1nc(F)c(Cl)c(N)c1Cl (stereo not drawn) [reference compound]
inhibition at 200 g/ha [2, 6]: 20 to 40% | rice, activity level (growth inhibition rate) ([5]; 200 g a.i./ha): 1 (Level 1: the growth inhibition rate is equal to or greater than 5% and less than 20%) | inhibition at 200 g/ha [3, 7]: 20 to 40% | inhibition at 200 g/ha [4, 8]: 40 to 60%

CCOC(=O)[C@H](C)Oc1nc(F)c(Cl)c(N)c1Cl [reference compound]
inhibition at 200 g/ha [2, 6]: 5 to 20% | inhibition at 200 g/ha [3, 7]: 5 to 20% | inhibition at 200 g/ha [4, 8]: 5 to 20%
